Measurements published in patent publication US9975849B1, “Gossypol l-arginine schiff base compound with antitumor activities and a method of preparing the same” (SHAANXI PANLONG PHARMACEUTICAL GROUP LIMITED BY SHARE LTD., priority 2017, dated 2018).
Like-named read-outs stand apart in the source and are kept apart here.

Assays:
Format in all cases: cell-based
[1] = system: human hepatoma cells (HepG2); assay: MTT tumor cell proliferation inhibition test, HepG2; conditions: for IC50: Homo sapiens, read-out: Half Inhibitory Concentration IC50 HepG2
Procedure: (§1) The compounds of the present invention were subjected to tumor cell proliferation inhibition test, and conventional MTT method was used.
(§2) Cell lines: human hepatoma cells (HepG2), human lung cancer cells (A-549), human gastric cancer cells (SGC-7901). The culture medium was DMEM+15% NBS+double antibody.
(§3) Sample solution preparation: after dissolving with DMSO (Merck), PBS (-) was added to obtain 100 μmol/L solution or homogeneous suspension. The solution was diluted with PBS (-) in DMSO to a final concentration of 0.1, 1, 10, 20, 40, 60, 80, 100 μmol/L.
(§4) Anti-uterine fibroids drug gossypol was used as control solution, prepared under the same condition.
(§5) Cell culture: adherent growth Tumor cells were cultured in 1640 medium containing 10% inactivated neonatal bovine serum and penicillin, streptomycin (1 million U/L), placed in carbon dioxide incubator at 37° C., 5% CO2, and saturated humidity. Cells were treated serially passaged 2-3 times. The first culture was washed with PBS 2 times, and digested with trypsin. Fresh culture medium was added evenly, cells were adjusted to a appropriate concentration and transferred into a new culture flask. […]
(§6) Experimental Principle: Living cells mitochondria in the dehydrogenase can reduce yellow MTT to water-insoluble blue-violet product MT (MTT formazan), deposited in the cells. […] DMSO can dissolve blue violet crystals, and the color depth is proportional to the amount contained, so the absorbance measured by the microplate reader can reflect the cell viability.
(§7) Methods: The exponential phase cells were digested and counted and seeded in 96-well plates at a density of 2×10^4/mL at 100 μl per well. […] After 48 hours, the supernatant was discarded, and 100 μl of MTT ((2-(4,5-dimethyl-2-thiazolyl)-3,5-diphenyl-2H-[…]) (1 mg/mL) was added to each well. After another 4 hours, the supernatant was discarded, and 100 μl of DMSO was added to each well. After mixing, the absorbance was measured at 570 nm using a microplate reader. An IC50 calculation software was used to determine the half inhibitory concentration (IC50).

[2] = system: human gastric cancer cells (SGC-7901); assay: MTT tumor cell proliferation inhibition test, SGC-7901; conditions: for IC50: Homo sapiens, read-out: Half Inhibitory Concentration IC50 SGC-7901
Procedure: as §1, §2, §3, §4
Cell culture: adherent growth Tumor cells were cultured in 1640 medium containing 10% inactivated neonatal bovine serum and penicillin, streptomycin (1 million U/L), placed in carbon dioxide incubator at 37° C., 5% CO2, and saturated humidity. Cells were treated serially passaged 2-3 times. The first culture was washed with PBS 2 times, and digested with trypsin. Fresh culture medium was added evenly, cells were adjusted to a appropriate concentration and transferred into a new culture flask. Cell in an exponential phase were chosen for the tests.
MTT Assay for Cell Viability and IC50 Determination:
Experimental Principle: Living cells mitochondria in the dehydrogenase can reduce yellow MTT to water-insoluble blue-violet product MT (MTT formazan), deposited in the cells. The amount of production is proportional to the number of living cells. […] DMSO can dissolve blue violet crystals, and the color depth is proportional to the amount contained, so the absorbance measured by the microplate reader can reflect the cell viability.
Methods: The exponential phase cells were digested and counted and seeded in 96-well plates at a density of 2×10^4/mL at 100 μl per well. After 24 hours of incubation, the cells to be tested were treated with 0.1, 1, 10, 20, 40, 60, 80, 100 μmol/L of the compounds. Each experimental group had 5 wells in each concentration, and the culture medium containing 0.4% DMSO was used as control. After 48 hours, the supernatant was discarded, and 100 μl of MTT ((2-(4,5-dimethyl-2-thiazolyl)-3,5-diphenyl-2H-[…]) (1 mg/mL) was added to each well. After another 4 hours, the supernatant was discarded, and 100 μl of DMSO was added to each well. After mixing, the absorbance was measured at 570 nm using a microplate reader. An IC50 calculation software was used to determine the half inhibitory concentration (IC50).

[3] = system: human lung cancer cells (A-549); assay: MTT tumor cell proliferation inhibition test, A-549
Procedure: as §1, §2, §3, §4, §5, §6, §7

Row | IC50 ([3]; Homo sapiens, MTT, 48 hours treatment, A549, read-out: Half Inhibitory Concentration IC50 A549) [µM] | IC50 ([1]; MTT, 48 hours treatment, HepG2) [µM] | IC50 ([2]; MTT, 48 hours treatment, SGC-7901) [µM] | SMILES | IC50 ([1]; HepG2, 48 h) [µM] | IC50 ([2]; SGC-7901, 48 h) [µM] | antitumor activities (in words) ([3]; A549, one of the three cell lines tested) | antitumor activities compared with gossypol ([3]; against A549) | antitumor activities (in words) ([1]; HepG2, one of the three cell lines tested) | antitumor activities (in words) ([2]; SGC-7901, one of the three cell lines tested) | antitumor activities compared with gossypol ([2]; against SCG-7901)
1 | – | – | – | Cc1cc2c(C(C)C)c(O)c(O)c(C=O)c2c(O)c1-c1c(C)cc2c(C(C)C)c(O)c(O)c(C=O)c2c1O [Gossypol, gossypol] | 8.29 ± 0.28 | 18.2 ± 0.37 | – | – | – | – | –
2 | 12.3 ± 0.69 | 11.7 ± 0.32 | 9.37 ± 0.36 | Cc1cc2c(C(C)C)c(O)c(O)c(/C=N\C(=N)NCCC[C@H](N)C(=O)O)c2c(O)c1-c1c(C)cc2c(C(C)C)c(O)c(O)c(/C=N/C(=N)NCCC[C@H](N)C(=O)O)c2c1O [Gossypol L-arginine Schiff base compound, gossypol L-arginine Schiff base compound] | – | – | excellent antitumor activities | better antitumor activities than gossypol | excellent antitumor activities | excellent antitumor activities | better antitumor activities than gossypol
